# From patent US9770520B2, “Chelate nanoemulsion for MRI” (GUERBET, priority 2011, dated 2017)
# Molecular target: T1, ∞vβ3 (Homo sapiens, UniProt P05106+P06756)
# T1 construct: performed on HUVEC cells overexpressing ∞vβ3; endogenous in cells; host or cells: HUVEC
# Assay: IC50 by competition with echistatin 125I on HUVEC cells
# Assay type: binding
# Conditions: competition with echistatin-125I-SIB, read-out: IC50 (nM of targeting ligand)
smiles,measurement,value
CCCCCCCCCCCCCCCCCC(=O)OCC(COP(=O)(O)OCCNC(=O)OCCOCCOCCOCCOCCOCCOCCOCCOCCOCCOCCOCCOCCOCCOCCOCCOCCOCCOCCOCCOCCOCCOCCOCCOCCOCCOCCOCCOCCOCCOCCOCCOCCOCCOCCOCCOCCOCCOCCOCCOCCOCCOCCOCCOCCNc1c(NCCNC(=O)CCCOc2cc(C)c(S(=O)(=O)CNC(NC(=O)CCCCc3ccc4c(n3)NCCC4)C(=O)O)c(C)c2)c(=O)c1=O)OC(=O)CCCCCCCCCCCCCCCCC (stereo not shown) [Example 6],IC50,0.4 nM
